Source: PubChem BioAssay (NCI)
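Assay format: 96-well plates, 48-hour exposure. TGI is the concentration that stops growth completely.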

Columns and labels:
Assay in all cases: inhibition of tumour cell growth, NCI panel, 48 h
786-0 renal = system: 786-0 renal
HCT-116 colon = system: HCT-116 colon
HCT-15 colon = system: HCT-15 colon
HL-60(TB) leukemia = system: HL-60(TB) leukemia
HS 578T breast = system: HS 578T breast
K-562 leukemia = system: K-562 leukemia
M14 melanoma = system: M14 melanoma
MALME-3M melanoma = system: MALME-3M melanoma
MDA-MB-435 = system: MDA-MB-435
MDA-N = system: MDA-N
MOLT-4 leukemia = system: MOLT-4 leukemia
NCI-H226 lung = system: NCI-H226 lung
OVCAR-3 ovarian = system: OVCAR-3 ovarian
SN12C renal = system: SN12C renal
SW-620 colon = system: SW-620 colon
U251 CNS = system: U251 CNS
UO-31 renal = system: UO-31 renal

SMILES	TGI (786-0 renal)	TGI (HCT-116 colon)	TGI (HCT-15 colon)	TGI (HL-60(TB) leukemia)	TGI (HS 578T breast)	TGI (K-562 leukemia)	TGI (M14 melanoma)	TGI (MALME-3M melanoma)	TGI (MDA-MB-435)	TGI (MDA-N)	TGI (MOLT-4 leukemia)	TGI (NCI-H226 lung)	TGI (OVCAR-3 ovarian)	TGI (SN12C renal)	TGI (SW-620 colon)	TGI (U251 CNS)	TGI (UO-31 renal)
c1ccc(-c2sc(-c3ccccc3)c3c2C2CCC3C2)cc1	> 100 µM	> 100 µM	> 100 µM	> 100 µM	70.6 µM	> 100 µM	> 100 µM	> 100 µM	> 100 µM	> 100 µM	> 100 µM	83.3 µM	> 100 µM	> 100 µM	> 100 µM	> 100 µM	58.3 µM
Cc1ccc(O)c(-c2cc(-c3ccccc3)nc(/N=C\c3ccccc3)n2)c1	> 100 µM	> 100 µM	> 100 µM	> 100 µM	79.8 µM	> 100 µM	> 100 µM	> 100 µM	> 100 µM	> 100 µM	> 100 µM	> 100 µM	> 100 µM	> 100 µM	> 100 µM	> 100 µM	13.5 µM
CSC1=N/C(=C\c2ccccc2)C(=O)N1CN1CCOCC1	> 100 µM	> 100 µM	> 100 µM	> 100 µM	> 100 µM	> 100 µM	> 100 µM	> 100 µM	> 100 µM	> 100 µM	> 100 µM	> 100 µM	> 100 µM	> 100 µM	> 100 µM	> 100 µM	> 100 µM
N=C1/C(=C/c2ccccc2)C(=O)N=C2SC=NN12	> 100 µM	> 100 µM	> 100 µM	> 100 µM	> 100 µM	> 100 µM	> 100 µM	> 100 µM	> 100 µM	> 100 µM	> 100 µM	> 100 µM	> 100 µM	> 100 µM	> 100 µM	> 100 µM	> 100 µM
Nc1nc(Cl)cc(NCC2(CO)CC(c3ccccc3)C2)n1 (centres undefined)	> 100 µM	> 100 µM	> 100 µM	56.9 µM	83.8 µM	> 100 µM	> 100 µM	> 100 µM	> 100 µM	> 100 µM	93.9 µM	> 100 µM	> 100 µM	> 100 µM	> 100 µM	> 100 µM	> 100 µM
O=C1CCCC(=O)N1n1c(Cc2ccc(Cl)cc2)n[nH]c1=O	> 100 µM	> 100 µM	> 100 µM	> 100 µM	> 100 µM	> 100 µM	> 100 µM	> 100 µM	> 100 µM	> 100 µM	> 100 µM	> 100 µM	> 100 µM	> 100 µM	> 100 µM	> 100 µM	> 100 µM
Cc1ccc(S(=O)(=O)Nn2c(C)cc3ccc(S(=O)(=O)Nc4ccccc4[N+](=O)[O-])cc3c2=O)cc1	> 100 µM	> 100 µM	> 100 µM	> 100 µM	> 100 µM	> 100 µM	> 100 µM	> 100 µM	> 100 µM	> 100 µM	> 100 µM	> 100 µM	> 100 µM	> 100 µM	> 100 µM	> 100 µM	> 100 µM
C=CCC1(O)C(=O)OC2C(O)COC21O (centres undefined)	> 100 µM	> 100 µM	> 100 µM	> 100 µM	> 100 µM	> 100 µM	> 100 µM	> 100 µM	> 100 µM	> 100 µM	> 100 µM	> 100 µM	> 100 µM	> 100 µM	> 100 µM	> 100 µM	> 100 µM
Cc1ccc(C)c(NC(=O)/C(=N\N)C(c2cnc3ccc([N+](=O)[O-])cc3n2)[N+](=O)[O-])c1 (centres undefined)	> 100 µM	> 100 µM	> 100 µM	> 100 µM	> 100 µM	> 100 µM	> 100 µM	> 100 µM	> 100 µM	> 100 µM	> 100 µM	> 100 µM	> 100 µM	> 100 µM	> 100 µM	> 100 µM	> 100 µM
N=c1oc2ccc([N+](=O)[O-])cc2cc1C(=O)Nc1ccccn1	42.9 µM	> 100 µM	> 100 µM	> 100 µM	78.5 µM	> 100 µM	> 100 µM	77.6 µM	> 100 µM	> 100 µM	> 100 µM	> 100 µM	65.8 µM	> 100 µM	> 100 µM	> 100 µM	–
COC(=O)CCN1CCN(CCO)CC1C (centres undefined)	> 10 µM	> 10 µM	> 10 µM	> 10 µM	> 10 µM	> 10 µM	> 10 µM	> 10 µM	> 10 µM	> 10 µM	> 10 µM	> 10 µM	> 10 µM	> 10 µM	> 10 µM	> 10 µM	> 10 µM
CCn1c(SCC(=O)NNC(=S)Nc2ccc(Cl)cc2)nc2ccccc2c1=O	> 100 µM	> 100 µM	> 100 µM	84.9 µM	> 100 µM	> 100 µM	> 100 µM	> 100 µM	> 100 µM	> 100 µM	> 100 µM	> 100 µM	> 100 µM	> 100 µM	> 100 µM	> 100 µM	> 100 µM
Cc1ccccc1C(=O)NC(O)(C(F)(F)F)C(F)(F)F	> 100 µM	> 100 µM	> 100 µM	> 100 µM	> 100 µM	> 100 µM	> 100 µM	> 100 µM	> 100 µM	> 100 µM	> 100 µM	> 100 µM	> 100 µM	> 100 µM	> 100 µM	> 100 µM	> 100 µM
O=C1NC(=O)/C(=C/c2ccc(S(=O)(=O)N/N=C/c3ccccc3)cc2)N1	> 100 µM	> 100 µM	> 100 µM	> 100 µM	> 100 µM	> 100 µM	> 100 µM	> 100 µM	> 100 µM	> 100 µM	> 100 µM	> 100 µM	> 100 µM	> 100 µM	> 100 µM	> 100 µM	> 100 µM
Cc1cc(O)c2c(c1)C(=O)C=C(Br)C2=O	31.3 µM	30.8 µM	27.4 µM	1.71 µM	35.6 µM	3.38 µM	29.5 µM	17.2 µM	27.6 µM	28.7 µM	4.45 µM	34.8 µM	30.6 µM	31 µM	12.2 µM	95.1 µM	28.9 µM
O=C(O)c1cccc(S(=O)(=O)NN2C(=O)CSC2c2ccccc2Cl)c1 (centres undefined)	> 100 µM	> 100 µM	> 100 µM	> 100 µM	> 100 µM	> 100 µM	> 100 µM	> 100 µM	> 100 µM	> 100 µM	> 100 µM	> 100 µM	> 100 µM	> 100 µM	> 100 µM	> 100 µM	> 100 µM
Clc1ccc(/C=C/c2nc(-c3ccc(Cl)cc3)cn3c2nc2ccccc23)cc1	> 100 µM	> 100 µM	> 100 µM	> 100 µM	> 100 µM	> 100 µM	> 100 µM	> 100 µM	> 100 µM	> 100 µM	> 100 µM	> 100 µM	> 100 µM	> 100 µM	> 100 µM	> 100 µM	> 100 µM
COc1cc(CCC(=O)O)c2cc3ccccc3cc2c1O	30.4 µM	31 µM	43.9 µM	39.1 µM	> 100 µM	42.4 µM	42.6 µM	32.3 µM	34.4 µM	32.5 µM	21.9 µM	78 µM	51.7 µM	31.7 µM	51.5 µM	29.9 µM	35.7 µM
CC(=O)OCC1=C2C(OC(=O)C(C)C)CC3(COC(C)=O)OC3/C=C\C3(C)OC3C2OC1=O (centres undefined)	> 100 µM	> 100 µM	> 100 µM	> 100 µM	> 100 µM	> 100 µM	> 100 µM	> 100 µM	> 100 µM	> 100 µM	> 100 µM	> 100 µM	> 100 µM	> 100 µM	> 100 µM	> 100 µM	> 100 µM
COc1ccc(/C=N/NS(=O)(=O)c2ccc(/C=C3\NC(=O)N(C)C3=O)cc2)cc1	> 100 µM	> 100 µM	> 100 µM	> 100 µM	> 100 µM	> 100 µM	> 100 µM	> 100 µM	> 100 µM	> 100 µM	> 100 µM	> 100 µM	> 100 µM	> 100 µM	> 100 µM	> 100 µM	> 100 µM
N#CC12CC=C(c3ccccc3)N=C1NC(c1ccccc1)=CC2 (centres undefined)	> 100 µM	> 100 µM	> 100 µM	50.5 µM	> 100 µM	> 100 µM	> 100 µM	> 100 µM	> 100 µM	> 100 µM	55.1 µM	> 100 µM	> 100 µM	> 100 µM	> 100 µM	> 100 µM	> 100 µM
Nc1ncnc2c1ccn2CC=C(CO)CO	> 100 µM	> 100 µM	> 100 µM	> 100 µM	> 100 µM	> 100 µM	> 100 µM	> 100 µM	> 100 µM	> 100 µM	> 100 µM	> 100 µM	> 100 µM	> 100 µM	> 100 µM	> 100 µM	> 100 µM
CC(C)[Si](Oc1cc2c3c(ccc2c(O)c1[C@@H](C)CO[Si](C)(C)C(C)(C)C)C(C)(C)CCC3)(C(C)C)C(C)C	> 100 µM	> 100 µM	> 100 µM	43.4 µM	> 100 µM	> 100 µM	> 100 µM	> 100 µM	> 100 µM	> 100 µM	> 100 µM	> 100 µM	> 100 µM	> 100 µM	> 100 µM	> 100 µM	> 100 µM
O=S(=O)(c1ccccc1)[C@@H]1[C@H]2C=C[C@](CS)(O2)[C@H]1S(=O)(=O)c1ccccc1	87.2 µM	26 µM	28.4 µM	> 100 µM	> 100 µM	36.9 µM	> 100 µM	> 100 µM	> 100 µM	> 100 µM	43.6 µM	> 100 µM	63.5 µM	> 100 µM	30.6 µM	> 100 µM	> 100 µM
CC(C)CC(NC=O)C(=O)NC(Cc1ccccc1)NC(=O)CNC(=O)C(C)NC(=O)OC(C)(C)C (centres undefined)	> 100 µM	> 100 µM	> 100 µM	> 100 µM	> 100 µM	> 100 µM	> 100 µM	> 100 µM	> 100 µM	> 100 µM	> 100 µM	> 100 µM	> 100 µM	> 100 µM	> 100 µM	> 100 µM	> 100 µM
CC(=O)c1c2c(cc3c1CC1(C3)Cc3ccc4c(c3C1=O)CCC4)CCC2 (centres undefined)	> 100 µM	> 100 µM	> 100 µM	15 µM	> 100 µM	> 100 µM	> 100 µM	> 100 µM	32.8 µM	> 100 µM	> 100 µM	> 100 µM	> 100 µM	> 100 µM	> 100 µM	> 100 µM	> 100 µM
S=C1NCCN1C(=S)NC1CCCCC1	> 100 µM	> 100 µM	89.7 µM	96.7 µM	99.2 µM	> 100 µM	51.2 µM	64.9 µM	67.6 µM	> 100 µM	> 100 µM	75.2 µM	> 100 µM	> 100 µM	> 100 µM	> 100 µM	81.6 µM
O=CN1CCN(C(=O)c2ccc(Cl)cc2)C1=S	19.7 µM	34.8 µM	55.8 µM	44.1 µM	> 100 µM	39.6 µM	27.7 µM	41.8 µM	28 µM	31.5 µM	48.2 µM	80 µM	28.7 µM	28 µM	36.5 µM	28.2 µM	–
